Consider one compound from patent publication US11807852B2, “Compositions and methods for reactivating latent immunodeficiency virus” (The J. David Gladstone Institutes, a testamentary trust …, priority 2014, dated 2023).

Each structure is given as a SMILES string.

The test system of series [1] is J-Lat cells (clone A2: LTR-Tat-IRES-GFP). It counts as cell-based. As to the method: To test this hypothesis, J-Lat cells (clone A2: LTR-Tat-IRES-GFP) were treated with SMYD2 inhibitors. […] Both cell lines were co-treated with X2 and Ingenol 3,20-dibenzoate (a protein kinase C (PKC) activator), JQ1 (BET-bromodomain inhibitor), or the histone deacetylase (HDAC) inhibitor suberoylanilidehydroxamic acid (SAHA).

Series [2] relates to latent HIV-1 in CD4+ T cells from HIV-1-infected individuals. The experiment in a line: Intracellular HIV-1 mRNA (ddPCR) in CD4+ T cells from HIV-1-infected individuals treated ex vivo. It counts as cell-based. The text has this: Four aviremic HIV-1-infected individuals were recruited from the SCOPE cohorts at the University of California. San Francisco. Table 2 details the characteristics of the study participants.
Peripheral blood mononuclear cells (PBMCs) from whole blood or continuous flow centrifugation leukapheresis product were purified using density centrifugation on a Ficoll-Hypaque gradient. Resting CD4^+ lymphocytes were enriched by negative depletion with an EasySepHuman CD4^+ T Cell Isolation Kit (Stemcell). Cells were cultured in RPMI medium supplemented with 10% fetal bovine serum, penicillin/streptomycin and 5 μM saquinavir. Five million resting CD4′ lymphocytes were stimulated with latency-reversing agents (LRAs) at the indicated concentrations (20-500 nM AZ391, 100 nM JQ1, 25 μl/1×10^6 T cells αCD3/αCD28 Dynabeads (Life Technologies) for 48 hours. After LRA treatment, cells were collected, lysed and total RNA was isolated with an RNeasy kit (Quiagen). A Superscript III One-Step RT-PCR system (Life Technologies) was used to generate and pre-amplify cell-associated viral mRNA. Reaction mixes contained 15 μl of a PCR mix containing reaction mix, Superscript III, primers (900 nM final concentration) and 10 μl purified RNA. Pre-amplification was carried out using the following steps: reverse transcription at 50° C. for 30 min, denaturation at 95° C. for 2 min, 10 cycles of amplification (94° C. 15 s, 55° C. 30 s, 68° C. 5 min) on a GeneAmp PCR system 9700 (Thermo Fisher). Subsequently, droplet digital PCR (ddPCR) was applied to quantify pre-amplified cDNA. Each 25 μl ddPCR mix comprised the ddPCR Probe Supermix (no dUTP), 900 nM primers, 250 nM probe, and 4 μl cDNA. The following cycling conditions were used: 10 minutes at 95° C. […] Finally, samples were amplified on a BioRad C1000 Thermocycler and analyzed using a BioRad QX100 ddPCR Reader. […]
Next, AZ391 was tested in CD4^+ T cells from HIV-1-infected individuals on suppressive ART. […] After 48 hours, levels of intracellular HIV-1 mRNA were measured by droplet digital RT-PCR using a previously published primer/probe set (Laird et al., 2015). […]

The subject of series [3] is latent HIV-1 in human lymphocyte aggregate cultures (HLAC) from tonsils. The experiment in a line: Ex vivo infected tonsil HLAC latency model, HIV-luciferase reporter virus. It counts as cell-based. Conditions: in combination with JQ1. The protocol: HLAC cells were isolated by Ficoll-Histopaque density gradient centrifugation of sheared tonsils from HIV-seronegative donors (Vanderbilt University Medical Center, Nashville, Tenn.). Isolated HLAC cells were counted, collected as pellets by centrifugation at 1500 rpm for 5 min at room temperature, and re-suspended in the appropriate volume of concentrated viral NL4.3-Luc supernatant. Typically, 50-100 ng of p24 Gag per […] HLAC were used. Spinoculations were performed in 96-well V-bottom plates in volumes of 200 μl or less. Cells and virus were centrifuged at 2000 rpm for 1.5-2 h at room temperature. After spinoculation, cells were pooled and cultured at 1×10^6 cells/ml in RPMI 1640 containing 10% FBS and supplemented with 5 μM Saquinavir (Sigma-Aldrich) for 3 days to prevent any residual spreading infection.
For reactivation of latent HIV-1 provirus, cells were counted and collected as pellets by centrifugation at 1500 rpm for 10 min. […] After 15 min of lysis, the luciferase activity in cell extracts was quantified with a Perkin Elmer EnSpire 2300 Multimode plate reader after mixing 20 μl of lysate with 100 μl of substrate (Luciferase Assay System-Promega). Relative light units (RLU) were normalized to protein content determined by Bradford assay (BioRad). Cell viability was measured with CellTiter-Blue Cell Viability Assay (Promega).

The conditions of series [4]: cited from earlier work.

With `N#Cc1cc(C(=O)NCCCN2CCCC2)cc(-c2ccccc2N2CCN(CCc3c[nH]c4ccccc34)CC2)c1` [AZ391], the “GFP-expressing cells compared with control-treated cells” value in series [1] (A2 J-Lat cells) is listed as “up to threefold more GFP-expressing cells than control-treated cells”. For the same compound, the “activation of HIV transcription / reactivation of the HIV-LTR (GFP)” value in series [1] (A2 J-Lat cells, single agent) is recorded as “activated HIV transcription in a dose-dependent manner”. In addition, the cell death entry in series [1] (at the concentration that effectively activated HIV transcription) was “slight increase in cell death”. In series [2] (500 nM, 48 hours, three additional donors), the “mean increase of intracellular HIV-1 mRNA levels” value was 1.5-10 fold. In series [2] (combination with JQ1), the “intracellular HIV-1 mRNA, combination effect” value is “no additive or synergistic effects”. The “intracellular HIV-1 mRNA levels” value in series [2] (increasing concentrations (maximal 500 nM), 48 hours, one individual) is recorded as “increased intracellular HIV-1 mRNA levels in a dose-dependent manner”. In addition, the “reactivation of latent HIV-1 (luciferase)” value was “Positive effects” in series [3] and “reactivates latent HIV-1” in series [3] (listed as X2). Moreover, the cell permeability result in series [4] was “cell-permeable”.
